How the values were obtained:
[1] = molecular target: T1, recombinant human 5-HT5A receptor (Homo sapiens, UniProt P47898); experiment: [3H]LSD radioligand binding assay; settings: [3H]LSD (approximately 1 nM), membranes from HEK-EBNA cells transiently expressing 5-HT5A receptors; Ki from IC50 by Cheng-Prussoff equation
T1 construct: expressed in transfected cells; host or cells: HEK-EBNA (Human Embryonic Kidney-EBNA) cells, transient cDNA expression; membranes used
Protocol: A [^3H]LSD radioligand binding assay was used to determine the affinity of the compounds for the recombinant human 5-HT5A receptor, in membranes from transiently (cDNA) expressed 5-HT5A receptors in Human Embryonic Kidney-EBNA (HEK-EBNA) cells. Assay buffer consisted of Tris (50 mM) buffer containing 1 mM EGTA, 10 mM MgCl2 (pH 7.4) and 10 μM pargyline. The binding assay was carried out in 96-well-plates in the presence of [^3H]LSD (approximately 1 nM), approximately 2 μg/well of membrane protein, and 0.5 mg of Ysi-poly-1-lysine SPA beads in a final volume of 200 μl of buffer. Non-specific binding was defined using methiothepin 2 μM. Compounds were tested at 10 concentrations. All assays were conducted in duplicate and repeated at least two times. Assay plates were incubated for 120 min at room temperature before centrifugation. Bound ligand was determined using a Packard Topcount scintillation counter. IC50 values were calculated using a non-linear curve fitting program and Ki values calculated using the Cheng-Prussoff equation.

T1 sequence (P47898 whole entry): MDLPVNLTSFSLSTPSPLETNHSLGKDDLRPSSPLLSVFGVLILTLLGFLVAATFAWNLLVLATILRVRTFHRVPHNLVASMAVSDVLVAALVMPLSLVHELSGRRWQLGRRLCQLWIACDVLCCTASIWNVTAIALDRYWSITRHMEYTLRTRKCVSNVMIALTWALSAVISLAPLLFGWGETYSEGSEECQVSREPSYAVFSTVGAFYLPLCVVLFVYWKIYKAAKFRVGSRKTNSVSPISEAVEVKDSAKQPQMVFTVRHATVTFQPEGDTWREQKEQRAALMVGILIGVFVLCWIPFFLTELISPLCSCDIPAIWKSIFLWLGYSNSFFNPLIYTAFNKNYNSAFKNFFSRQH

| Ki [1] [nM] | melting point [°C] | Structure (SMILES) |
| --- | --- | --- |
| 26 | – | c1ccc2c(c1)CC[C@H]2Nc1ccc2c(NC3CCOCC3)cccc2n1 [Example 3, N^2-(R)-Indan-1-yl-N^5-(tetrahydro-pyran-4-yl)-quinoline-2,5-diamine] |
| 23.5 | – | CSCCNc1cccc2nc(N[C@@H]3CCc4ccccc43)ccc12 [Example 5, N^2-(R)-Indan-1-yl-N^5-(2-methylsulfanyl-ethyl)-quinoline-2,5-diamine] |
| 26.5 | – | C[S+]([O-])CCNc1cccc2nc(N[C@@H]3CCc4ccccc43)ccc12 (stereo partly drawn) [Example 6, N^2-(R)-Indan-1-yl-N^5-(2-methanesulfinyl-ethyl)-quinoline-2,5-diamine] |
| 24.7 | – | CS(=O)(=O)CCNc1cccc2nc(N[C@@H]3CCc4ccccc43)ccc12 [Example 7, N^2-(R)-Indan-1-yl-N^5-(2-methanesulfonyl-ethyl)-quinoline-2,5-diamine] |
| 7.2 | – | Nc1cccc2nc(N[C@@H]3CCc4ccccc43)ccc12 [Example 16, (R)—N^2-Indan-1-yl-quinoline-2,5-diamine] |
| 32.2 | – | O=S(=O)(Nc1cccc2nc(N[C@@H]3CCc4ccccc43)ccc12)C1CC1 [Example 17, Cyclopropanesulfonic acid[2-((R)-indan-1-ylamino)-quinolin-5-yl]-amide] |
| 68 | – | O=C(Nc1cccc2nc(N[C@@H]3CCc4ccccc43)ccc12)C1CC1 [Example 22, Cyclopropanecarboxylic acid[2-((R)-indan-1-ylamino)-quinolin-5-yl]-amide] |
| 17.4 | 200.5 | N=C(NO)c1cccc2nc(N[C@@H]3CCc4ccccc43)ccc12 [Example 28, N-Hydroxy-2-((R)-indan-1-ylamino)-quinoline-5-carboxamidine] |
| 5.8 | 151 | ON=C(c1cccc2nc(N[C@@H]3CCc4ccccc43)ccc12)C1CC1 [Example 31, Cyclopropyl-[2-((R)-indan-1-ylamino)-quinolin-5-yl]-methanone oxime] |
| – | 153 | CN(C)CC(=O)Nc1cccc2nc(N[C@@H]3CCc4ccccc43)ccc12 [Example 32, 2-Dimethylamino-N-[2-((R)-indan-1-ylamino)-quinolin-5-yl]-acetamide] |
| – | 211 | O=C(CC1CCOCC1)Nc1cccc2nc(N[C@@H]3CCc4ccccc43)ccc12 [Example 35, N-[2-((R)-Indan-1-ylamino)-quinolin-5-yl]-2-(tetrahydro-pyran-4-yl)-acetamide] |
| 27.7 | – | c1ccc2c(c1)CC[C@H]2Nc1ccc2c(C3CC3)cccc2n1 [Example 44, (5-Cyclopropyl-quinolin-2-yl)-(R)-indan-1-yl-amine] |

Further lines, the compound ahead of its results:

| Structure (SMILES) | Ki [1] [nM] | melting point [°C] |
| --- | --- | --- |
| COc1cccc2c1C(Nc1ccc3c(N)cccc3n1)CC2 (racemic) [Example 19, rac-N^2-(7-Methoxy-indan-1-yl)-quinoline-2,5-diamine] | 6.1 | – |
| COc1cccc2c1C(Nc1ccc3c(NS(=O)(=O)N(C)C)cccc3n1)CC2 (racemic) [Example 20, rac-N′-{2-[(7-methoxy-indan-1-yl)amino]quinolin-5-yl}-N,N-dimethylsulfamide] | 2.3 | – |
| Nc1cccc2nc(NC3Cc4ccccc4C3)ccc12 (racemic) [Example 23, rac-N^2-Indan-2-yl-quinoline-2,5-diamine] | 219 | – |
| Nc1cccc2nc(NC3CCc4cc(F)ccc43)ccc12 (racemic) [Example 37, rac-N^2-[5-Fluoro-indan-1-yl]-quinoline-2,5-diamine] | 12.5 | – |
| COc1cccc2c1C(Nc1ccc3c(NCCSC)cccc3n1)CO2 (racemic) [Example 39, rac-N^2-(4-Methoxy-2,3-dihydro-benzofuran-3-yl)-N^5-(2-methylsulfanyl-ethyl)-quinoline-2,5-diamine] | 25.2 | – |
| COc1cccc2c1C(Nc1ccc3c(NCCS(C)(=O)=O)cccc3n1)CO2 (racemic) [Example 40, N^5-(2-Methanesulfonyl-ethyl)-N^2-(RS)-(4-methoxy-2,3-dihydro-benzofuran-3-yl)-quinoline-2,5-diamine] | 29.1 | 188 |
| O=C(Cc1ccc(F)cc1)Nc1cccc2nc(NC3CCc4cc(F)ccc43)ccc12 (racemic) [Example 48, rac-N-[2-(5-Fluoro-indan-1-ylamino)-quinolin-5-yl]-2-(4-fluoro-phenyl)-acetamide] | 17.6 | 187 |
| O=C(Cc1cccs1)Nc1cccc2nc(NC3CCc4cc(F)ccc43)ccc12 (racemic) [Example 49, rac-N-[2-(5-Fluoro-indan-1-ylamino)-quinolin-5-yl]-2-thiophen-2-yl-acetamide] | – | 184 |
| O=C(Cc1cc(F)cc(F)c1)Nc1cccc2nc(NC3CCc4cc(F)ccc43)ccc12 (racemic) [Example 50, rac-2-(3,5-Difluoro-phenyl)-N-[2-(5-fluoro-indan-1-ylamino)-quinolin-5-yl]-acetamide] | – | 203 |
| O=C(Cc1ccc(Cl)cc1)Nc1cccc2nc(NC3CCc4cc(F)ccc43)ccc12 (racemic) [Example 51, rac-2-(4-Chloro-phenyl)-N-[2-(5-fluoro-indan-1-ylamino)-quinolin-5-yl]-acetamide] | 9.4 | 221 |
| COc1ccc(CC(=O)Nc2cccc3nc(NC4CCc5cc(F)ccc54)ccc23)cc1 (racemic) [Example 53, rac-N-[2-(5-Fluoro-indan-1-ylamino)-quinolin-5-yl]-2-(4-methoxy-phenyl)-acetamide] | – | 192 |
| COc1cccc2c1C(Nc1ccc3c(NC(=O)Cc4ccc(F)cc4)cccc3n1)CC2 (racemic) [Example 54, rac-2-(4-Fluoro-phenyl)-N-[2-(7-methoxy-indan-1-ylamino)-quinolin-5-yl]-acetamide] | 11 | 195 |
| COc1cccc2c1C(Nc1ccc3c(NC(=O)Cc4cccs4)cccc3n1)CC2 (racemic) [Example 55, rac-N-[2-(7-Methoxy-indan-1-ylamino)-quinolin-5-yl]-2-thiophen-2-yl-acetamide] | – | 194 |
| COc1cccc2c1C(Nc1ccc3c(NC(=O)Cc4cc(F)cc(F)c4)cccc3n1)CC2 (racemic) [Example 56, rac-2-(3,5-Difluoro-phenyl)-N-[2-(7-methoxy-indan-1-ylamino)-quinolin-5-yl]-acetamide] | – | 248 |
| COc1cccc2c1C(Nc1ccc3c(NC(=O)Cc4ccc(Cl)cc4)cccc3n1)CC2 (racemic) [Example 57, rac-2-(4-Chloro-phenyl)-N-[2-(7-methoxy-indan-1-ylamino)-quinolin-5-yl]-acetamide] | 9.1 | 234 |
| COc1ccc(CC(=O)Nc2cccc3nc(NC4CCc5cccc(OC)c54)ccc23)cc1 (racemic) [Example 58, rac-N-[2-(7-Methoxy-indan-1-ylamino)-quinolin-5-yl]-2-(4-methoxy-phenyl)-acetamide] | – | 209 |
| CNc1cccc2nc(N[C@@H]3CCc4ccccc43)ccc12 [Example 1, N^2-(R)-Indan-1-yl-N^5-methyl-quinoline-2,5-diamine] | 22.5 | – |
| c1ccc2c(c1)CC[C@H]2Nc1ccc2c(N3CCOCC3)cccc2n1 [Example 4, (R)-Indan-1-yl-(5-morpholin-4-yl-quinolin-2-yl)-amine] | 105 | – |
| COCCOc1cccc2nc(N[C@@H]3CCc4ccccc43)ccc12 [Example 24, (R)-Indan-1-yl-[5-(2-methoxy-ethoxy)-quinolin-2-yl]-amine] | 90.6 | – |
| O=C(CN1CCOCC1)Nc1cccc2nc(N[C@@H]3CCc4ccccc43)ccc12 [Example 33, N-[2-((R)-Indan-1-ylamino)-quinolin-5-yl]-2-morpholin-4-yl-acetamide] | – | 179 |
| O=C(Cc1ccc(F)cc1)Nc1cccc2nc(N[C@@H]3CCc4ccccc43)ccc12 [Example 45, 2-(4-Fluoro-phenyl)-N-[2-((R)-indan-1-ylamino)-quinolin-5-yl]-acetamide] | 11 | 207 |
| O=C(Cc1cccs1)Nc1cccc2nc(N[C@@H]3CCc4ccccc43)ccc12 [Example 46, N-[2-((R)-Indan-1-ylamino)-quinolin-5-yl]-2-thiophen-2-yl-acetamide] | 36.1 | 163.5 |
| O=C(Cn1ccnc1)Nc1cccc2nc(N[C@@H]3CCc4ccccc43)ccc12 [Example 47, 2-Imidazol-1-yl-N-[2-((R)-indan-1-ylamino)-quinolin-5-yl]-acetamide] | – | 226 |
| COc1ccc(CC(=O)Nc2cccc3nc(N[C@@H]4CCc5ccccc54)ccc23)cc1 [Example 52, N-[2-((R)-Indan-1-ylamino)-quinolin-5-yl]-2-(4-methoxy-phenyl)-acetamide] | – | 175 |
| O=C(Cc1cc(F)cc(F)c1)Nc1cccc2nc(N[C@@H]3CCc4ccccc43)ccc12 [Example 59, 2-(3,5-Difluoro-phenyl)-N-[2-((R)-indan-1-ylamino)-quinolin-5-yl]-acetamide] | 28.7 | 221 |
| O=C(Cc1ccc(Cl)cc1)Nc1cccc2nc(N[C@@H]3CCc4ccccc43)ccc12 [Example 60, 2-(4-Chloro-phenyl)-N-[2-((R)-indan-1-ylamino)-quinolin-5-yl]-acetamide] | 5.5 | 170 |
